In patent publication EP0416609A2, “Benzo[b]thiophene-containing lipoxygenase-inhibiting compounds” (ABBOTT LABORATORIES, priority 1989, dated 1991):

Each compound was assayed against T1, 5-lipoxygenase (Rattus norvegicus, UniProt P12527) (assay: Lipoxygenase IC50 determination (20,000xg supernatant from homogenized RBL-1 cells, radiolabelled arachidonic acid)). Conditions: 20,000xg supernatant from 6x10⁴ homogenized RBL-1 cells, 2% DMSO vehicle, triplicate incubations; read-out: IC₅₀.
T1 construct: containing the 20,000xg supernatant from 6x10⁴ homogenized RBL-1 cells; endogenous in cells; host or cells: RBL-1 cells (20,000xg supernatant of homogenate)
T1 sequence (P12527 1-673): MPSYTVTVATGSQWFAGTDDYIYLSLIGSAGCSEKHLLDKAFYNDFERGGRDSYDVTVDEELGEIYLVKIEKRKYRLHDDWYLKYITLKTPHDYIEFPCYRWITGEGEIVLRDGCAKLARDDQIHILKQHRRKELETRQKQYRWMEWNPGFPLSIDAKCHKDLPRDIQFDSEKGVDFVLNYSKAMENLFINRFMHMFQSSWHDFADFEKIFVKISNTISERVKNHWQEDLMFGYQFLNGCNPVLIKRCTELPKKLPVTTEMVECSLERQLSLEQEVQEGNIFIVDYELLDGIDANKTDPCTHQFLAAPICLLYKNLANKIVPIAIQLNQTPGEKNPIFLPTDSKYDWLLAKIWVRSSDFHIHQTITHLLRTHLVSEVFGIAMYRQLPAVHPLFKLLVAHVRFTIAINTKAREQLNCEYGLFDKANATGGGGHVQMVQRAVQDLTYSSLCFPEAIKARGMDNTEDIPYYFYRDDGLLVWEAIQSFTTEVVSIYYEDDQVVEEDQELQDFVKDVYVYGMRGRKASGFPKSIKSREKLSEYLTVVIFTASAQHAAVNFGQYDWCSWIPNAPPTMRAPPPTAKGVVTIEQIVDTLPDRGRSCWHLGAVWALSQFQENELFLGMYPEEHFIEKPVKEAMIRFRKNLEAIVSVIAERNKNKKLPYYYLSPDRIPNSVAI
Assay type: biochemical
Experimental: Lipoxygenase IC₅₀ Determination
Reactions were initiated by addition of radiolabelled arachidonic acid and terminated by acidification and ether extraction. Reaction products were separated from nonconverted substrate by thin layer chromatography and measured by liquid scintillation spectroscopy. All treatments were evaluated in triplicate incubations. […] ICso values and 95% confidence limits were computed by linear regression analysis of percentage inhibition versus log inhibitor concentration plots.

Compound	IC50 [nM]
CCOC(=O)ON(C(N)=O)C(C)c1cc2ccccc2s1 (stereo not shown) [Example 4, N-ethoxycarbonyloxvyN-[1-(benzo[b]thien-2-yl)ethyl]urea]	1500
CC(c1cc2ccccc2s1)N(O)C(=O)NC(N)=O (stereo not shown) [Example 11]	1000
COC(=O)ON(C(N)=O)C(C)c1cc2ccccc2s1 (stereo not shown) [Example 5, N-methoxycarbonyloxy-N-[1-(benzol[b]thien-2-yl)ethyl]urea]	1200
CC(=O)N(O)C(C)c1cc2ccccc2s1 (stereo not shown) [Example 1, N-hydroxy-N-(1-benzol[b]thien-2-ylethyl)acetamide]	1100
CC(=O)ON(C(N)=O)C(C)c1cc2ccccc2s1 (stereo not shown) [Example 3, N-acetoxy-N-[1-(benzol[b]thien-2-yl)ethyl]urea]	2100
CC(c1cc2ccccc2s1)N(OC(=O)CCC(=O)O)C(N)=O (stereo not shown) [Example 9, N-succinyloxy-N-[1-(benzo[b]thien-2-yl)ethyl]urea]	600
CC(=O)NC(=O)N(O)C(C)c1cc2ccccc2s1 (stereo not shown) [Example 10, N′-acetyl-N-hydroxy-N-[1-(benzo[b]thien-2-yl)ethyl]urea;]	1500
